Bounds are passed on as bounds.

One data set deals with U-373MG. In words: MTT cytotoxicity test, U-373MG. To be noted: Homo sapiens, U373 MG, U-373MG glioblastoma, 72 hours, read-out: concentrations flanking the IC50. Format: cell-based. Here is the method:
(§1) The influence of the compounds of formulae I and II on neoplastic cells was evaluated using the MTT calorimetric test. The principle of the MTT test is based on the mitochondrial reduction by metabolically active live cells of the yellow-colored product MTT (3-(4,5-dimethylthiazol-2-yl)-2,5-diphenyltetrazolium bromide) to a blue-colored product, formazan. The amount of formazan thus obtained is directly proportional to the amount of live cells present in the culture well(s). This amount of formazan is measured by spectrophotometry.
(§2) The cell lines are maintained in monolayer culture at 37° C. in stoppered culture dishes containing 25 MM HEPES MEM (Minimum Essential Medium) base medium. This medium, which is suitable for growing a range of varied diploid or primary mammalian cells, is then supplemented: […]
(§3) with a an amount of 5% FCS (Fetal Calf Serum) decomplemented at 56° C. for 1 hour, with 0.6 mg/mL of L-glutamine, with 200 IU/mL of penicillin, with […] of streptomycin, with 0.1 mg/mL of gentamicin.
(§4) The 12 human cancer cell lines used were obtained from the American Type Culture Collection (ATCC, Rockville, Md., USA). These 12 cell lines are:
(§5) U-373MG (code ATCC: HTB-17) and U-87MG (code ATCC: HTB-14) which are two glioblastomas, Experimentally: 100 μl of a cell suspension containing 200 000 to 50 000 (depending on the cell type used) cells/mL of culture medium are inoculated in flat-bottomed 96-well multi-well plates and are incubated at 37° C. under an atmosphere comprising 5% CO2 and 70% humidity. […] The intensity of the resulting blue coloration, and thus of the conversion of the yellow MTT product into blue formazan by the cells that are still alive at the end of the experiment is quantified by spectrophotometry using a DYNATECH IMMUNOASSAY SYSTEM machine at wavelengths of 570 nm and 630 nm corresponding, respectively, to the maximum absorption wavelengths of formazan and to the background noise. […]

Data set [1] can be described thus: Determination of the maximum tolerated dose (MTD). The format is in vivo. The conditions noted are these: mouse, in vivo, ip; single intraperitoneal administration, survival over 14 days, B6D2F1/Jico mice. Here is the method: The evaluation of the maximum tolerated dose was carried out on 4- to 6-week-old B6D2F1/Jico mice. […] The value of the MTD (expressed in mg/kg) is determined from observing the survival rate of the animals over a period of 14 days after a single administration of the product under consideration. The change in the weight of the animals is also monitored over this period.

Data set [2] deals with 12 human tumor lines: U-87MG, U-373MG, SW 1088, T24, J82, HCT-15, LoVo, MCF7, T-47D, A549, A-427 and PC-3. In words: MTT cytotoxicity test, panel of the 12 human tumor lines. Format: cell-based. The conditions noted are these: Homo sapiens, read-out: average IC50. Here is the method:
as §1, §2, §3, §4
U-373MG (code ATCC: HTB-17) and U-87MG (code ATCC: HTB-14) which are two glioblastomas, SW1088 (code ATCC: HTB-12) which is an astrocytoma, A549 (code ATCC: CCL-185) and A-427 (code ATCC: HTB-53) which are two non-small-cell lung cancers, HCT-15 (code ATCC: CCL-225) and LoVo (code ATCC: CCL-229) which are two colorectal cancers, T-47D (code ATCC: HTB-133) and MCF7 (code ATCC: HTB-22) which are two breast cancers, J82 (code ATCC: HTB-1) and T24 (code ATCC: HTB-4) which are two bladder cancers, PC-3 (code ATCC: CRL-1435) which is a prostate cancer.
Experimentally: 100 μl of a cell suspension containing 200 000 to 50 000 (depending on the cell type used) cells/mL of culture medium are inoculated in flat-bottomed 96-well multi-well plates and are incubated at 37° C. under an atmosphere comprising 5% CO2 and 70% humidity. After incubating for 24 hours, the culture medium is replaced with 100 μl of fresh medium containing either the various test compounds at concentrations ranging from 10^−5 to 10^−10 M or the solvent used to dissolve the test products (control condition). After incubating for 72 hours under the above conditions, the culture medium is replaced with 100 μl of a yellowish solution of MTT dissolved at a rate of 1 mg/mL in RPMI 1640. The microplates are reincubated for 3 hours at 37° C. and then centrifuged for 10 minutes at 400×g. The yellowish solution of MTT is removed and the blue formazan crystals formed at the cellular level are dissolved in 100 μl of DMSO. The microplates are then agitated for 5 minutes. The intensity of the resulting blue coloration, and thus of the conversion of the yellow MTT product into blue formazan by the cells that are still alive at the end of the experiment is quantified by spectrophotometry using a DYNATECH IMMUNOASSAY SYSTEM machine at wavelengths of 570 nm and 630 nm corresponding, respectively, to the maximum absorption wavelengths of formazan and to the background noise. Software built into the spectrophotometer calculates the average optical density values and also the standard deviation (Std. Dev.) and standard error of mean (SEM) values.
The inhibitory activity on the cell growth of the compounds of formula I and of formula II on the different tumor cell lines was compared with that of the natural product meridine (CRL 8348). All of the compounds of formula I and of formula II show significant inhibitory activity on the cell proliferation of the 12 human tumor lines: U-87MG, U-373MG, SW 1088, T24, J82, HCT-15, LoVo, MCF7, T-47D, A549, A-427 and PC-3 with an inhibitory concentration 50 (IC50) which is between 10^−6 M and 10^−10M, depending on the compounds and the tumor lines tested. By way of example, the values of the concentrations flanking the IC50 which are obtained on the various cell lines are given in table II: […]

The next data set has as its system A549. The data set can be described thus: MTT cytotoxicity test, A549. The format is cell-based. To be noted: Homo sapiens, A549 non-small-cell lung cancer, 72 hours, read-out: concentrations flanking the IC50. On the procedure:
as §1, §2, §3
The 12 human cancer cell lines used were obtained from the American Type Culture Collection (ATCC, Rockville, Md., USA). These 12 cell lines are: […]

A further data set deals with U-87MG. In words: MTT cytotoxicity test, U-87MG. The conditions noted are these: Homo sapiens, U-87MG glioblastoma, 72 hours, read-out: concentrations flanking the IC50. Format: cell-based. On the procedure: as §1, §2, §3, §4, §5

As to `COc1ccnc2c1C(=O)c1c(-c3ccccc3NC(=O)C(F)(F)F)ccnc1C2=O` [CRL 8275, 6-Methoxy-4-(2-trifluoroacetamidophenyl)pyrido-[3,2-g]quinoline-5,10-dione], the IC50 with U-373MG was < 0.1 nM; in data set [2] it was 2.3 nM; in the data set on A549 it was < 0.1 nM; with U-87MG, < 0.1 nM. The same molecule yielded an MTD at 14 days in data set [1] of 80 mg/kg.

For the origin of these results see patent publication US6583150B1, “Pharmaceutical composition based on polyaromatic compounds” (Laboratorie L. Lafon, priority 1999, dated 2003).
